# Laboratory results: patent publication US20160264684A1, “GLYCAN-INTERACTING COMPOUNDS AND METHODS OF USE” (SIAMAB THERAPEUTICS, INC., priority 2013, published 2016)
# B1: 18C7: anti-STn monoclonal antibody from mouse #4436; IgG2c κ; SEQ ID NO 4 and 5 (antibody, V domains shown)
# VH: QVTLKESGPGILQPSQTLSLTCSFSGFSLSTFGMGVGWIRQPSGKGLEWLAHIWWDDDKYYNPALKSRLTISKDTSKNQVFLKIANVDTADTATYYCARIAYYYGSERDYWGQGTTLTVSS
# VL: QIVLTQSPAIMSASPGEKVTMTCSASSSISYMHWYHQKPGTSPKRWIYDTSKLASGVPARFSGSGSGTSYSLTISSMEAEDAATYYCHQRSSYTFGGGTKLEIKR
# B2: B72.3: commercial anti-STn antibody, TAG-72 clone B72.3 (Thermo Fisher Scientific) (antibody, chains of the INN, looked up, V domains shown)
# VH: QVQLQQSDAELVKPGASVKISCKASGYTFTDHAIHWAKQKPEQGLEWIGYISPGNDDIKYNEKFKGKATLTADKSSSTAYMQLNSLTSEDSAVYFCKRSYYGHWGQGTTLTVSS
# VL: DIQMTQSPASLSVSVGETVTITCRASENIYSNLAWYQQKQGKSPQLLVYAATNLADGVPSRFSGSGSGTQYSLKINSLQSEDFGSYYCQHFWGTPYTFGGGTRLEIK
# Tests used:
# [1] = system: E3-STn cells; experiment: E3-STn transfected murine breast tumor allograft model, tumor volume; type: in vivo, mouse; conditions: 7G9-1A8 25 mg/kg ip twice weekly 3 weeks, Paclitaxel daily 5 days
# Procedure: 3 test articles were evaluated during the study.
# Standard deviation values are listed in parenthesis.
# [2] = Glycan array STn specificity and anti-STn antibody group; type: binding; parameters: key to Group: Group 1 antibodies according to the invention are antibodies capable of binding AcSTn and GcSTn; Antibodies were assigned to Group 2 based on their ability to bind STn as well as some related structures that include an O-linkage to serine or threonine; Group 3 antibodies are antibodies capable of binding STn, but may also bind a broader set of related structures; Group 4 antibodies are capable of binding to both AcSTn and GcSTn as well as the un-sialylated Tn antigen; conditions: assigned from flow cytometry and glycan array analysis
# Procedure: Optimized glycan arrays comprise 71 chemically synthesized and well-defined glycans, most of which comprise Neu5Ac and Neu5Gc glycan pairs.
# 300 ml of epoxy blocking buffer is prepared by combining 15 ml of 2 M Tris buffer (pH 8) with 0.9 ml of 16.6 M ethanolamine and 284.1 ml of distilled water. The solution is filtered using a […] nitrocellulose membrane. The epoxy buffer solution as well as 1 L of distilled water are pre-warmed to 50° C. Glass slides are arranged in a slide holder and quickly submerged in a staining tub with the warmed epoxy blocking buffer. Slides are incubated in the epoxy blocking buffer for 1 hour at 50° C. with periodic shaking to deactivate epoxy binding sites. Next, slides are rinsed and blocked with PBS with 1% OVA at 25° C. for one hour. Serum samples are diluted 1:1000 in PBS with 1% OVA and added to the glycan array for one hour at 25° C. After extensive washing, binding of polyclonal serum antibodies are detected by incubating glycan microarray slides with Cy3-conjugated anti-mouse IgG (Jackson Immunoresearch, West Grove, Pa.) for one hour. Slides are then washed extensively, dried and scanned with a Genepix 4000B scanner (Laser at 100%; gain at 350; 10 μm pixels). Raw data from scanned images are extracted using the Genepix software and analysis of raw data is carried out.
# Based on characterization data, anti-STn antibodies developed from Group 6 and Group 8 mice were categorized by anti-STn group number. In some cases, antibodies were assigned to Group 1. Group 1 antibodies according to the invention are antibodies capable of binding AcSTn and GcSTn. Such antibodies may have the ability to associate with a wider range of STn structures. The large oval in FIG. 1A indicates the portion of STn recognized by Group 1 antibodies. […] Also listed in the Table is the antibody Isotype for each antibody as determined by the IsoStrip mouse monoclonal antibody isotyping kit (Roche Diagnostics GmbH, Manheim, Germany).
# [3] = system: STn on bovine submaxillary mucin (BSM); experiment: Anti-STn BSM ELISA; type: binding; conditions: BSM ELISA, sodium periodate treated wells
# Procedure: (§1) Anti-STn serum titer is determined using a murine anti-STn bovine submaxillary mucin (BSM) ELISA together with serum profiles observed by glycan microarray. 96-well plates are coated with 1 μg/well of BSM and incubated overnight at 4° C. O-acetylation of BSM antigen is removed by treating wells with 0.1 M sodium hydroxide. Specific binding to STn is determined by treatment of wells with sodium periodate. Periodate treatment destroys the C6 side chain of sialic acid; therefore antibodies raised against STn should not bind to periodate-treated wells. Wells are blocked with PBS 1% ovalbumin (OVA). Serum samples to be assayed are serially diluted in PBS 1% OVA. A commercially available mouse anti-STn monoclonal antibody, 3F1 (SBH Sciences, Natick, Mass.) is used as a positive control. This antibody is also serially diluted in PBS with 1% OVA. A pool of serum from naïve wild type mice is used for the preparation of negative control samples. Detection of anti-STn antibodies present in serum is determined using an HRP-conjugated polyclonal goat anti-mouse IgG antibody (Jackson Immunoresearch, West Grove, Pa.). The reaction is stopped by addition of sulfuric acid (1.6 M). Optical densities are measured at 490 nm using a Spectramax microplate reader (Molecular Devices, Sunnyvale, Calif.). The serum titer is obtained by comparison of OD values with a cutoff value calculated as two standard deviations above the mean of optical density values of the negative control. […]
# Binding affinities of 18D2 and 18C7 to STn were compared to commercially available anti-STn antibodies using the BSM ELISA assay described in Example 2. […] Antibody binding was determined using HRP-conjugated polyclonal goat anti-mouse IgG antibody (Jackson Immunoresearch Laboratories, West Grove, Pa.). […] Optical densities were measured at 490 nm using a Spectramax microplate reader. […] The half maximal effective concentration (EC50) for each antibody was calculated using a non-linear regression analysis carried out on periodate subtracted data.
# [4] = AcSTn-PAA ELISA; type: binding; conditions: 200 ng/well PAA antigen; 1:5 dilutions from 1 μM
# Procedure: as §1, with “A commercially available mouse anti-STn monoclonal antibody, 3F1 (SBH Sciences, Natick, Mass.) is used as a positive control. This antibody is also serially diluted in PBS with 1% OVA. A pool of serum from naïve wild type mice is used for the preparation of negative control samples.” left out, “The reaction is stopped by addition of sulfuric acid (1.6 M).” left out
# (§2) 18D2 and 18C7 antibodies were further characterized by ELISA comprising antigens other than BSM. […] Binding of anti-STn antibodies was detected using a goat anti-mouse IgG-HRP conjugated antibody (Jackson Immunoresearch Laboratories, West Grove, Pa.). […]
# [5] = GcSTn-PAA ELISA; type: binding; conditions: 200 ng/well PAA antigen; 1:5 dilutions from 1 μM
# Procedure: as §1, with “A commercially available mouse anti-STn monoclonal antibody, 3F1 (SBH Sciences, Natick, Mass.) is used as a positive control. This antibody is also serially diluted in PBS with 1% OVA. A pool of serum from naïve wild type mice is used for the preparation of negative control samples.” left out, “The reaction is stopped by addition of sulfuric acid (1.6 M).” left out
# as §2
molecule,measurement,setting,value
"CC(=O)O[C@H]1C(=O)[C@@]2(C)[C@H]([C@H](OC(=O)c3ccccc3)[C@]3(O)C[C@H](OC(=O)[C@H](O)[C@@H](NC(=O)c4ccccc4)c4ccccc4)C(C)=C1C3(C)C)[C@]1(OC(C)=O)CO[C@@H]1C[C@@H]2O [Paclitaxel, reference compound]",Average Tumor Volume,[1]; day 1 of treatment,112.7 mm^3
same,Average Tumor Volume,[1]; day 4 of treatment,179.5 mm^3
same,Average Tumor Volume,[1]; day 6 of treatment,191.4 mm^3
same,Average Tumor Volume,[1]; day 8 of treatment,198.6 mm^3
same,Average Tumor Volume,[1]; day 11 of treatment,199.8 mm^3
same,Average Tumor Volume,[1]; day 13 of treatment,227.0 mm^3
same,Average Tumor Volume,[1]; day 15 of treatment,248.4 mm^3
same,Average Tumor Volume,[1]; day 18 of treatment,290.5 mm^3
same,Average Tumor Volume,[1]; day 20 of treatment,328.2 mm^3
same,Average Tumor Volume,[1]; day 22,331.8 mm^3
same,Average Tumor Volume,[1]; day 26,344.0 mm^3
same,Average Tumor Volume,[1]; day 27,350.1 mm^3
same,Average Tumor Volume,[1]; day 29,352.3 mm^3
same,Average Tumor Volume,[1]; day 32,355.1 mm^3
same,Average Tumor Volume,[1]; day 34,358.4 mm^3
same,Average Tumor Volume,[1]; day 36,282.0 mm^3
same,Average Tumor Volume,[1]; day 39,267.2 mm^3
same,Average Tumor Volume,[1]; day 41,276.4 mm^3
B1,Group,[2],1
same,binding to periodate-treated wells,[3],did not bind
B2,EC50,[4],71.3 nM
same,EC50,[5],27.8 nM
